Patent publication US20240109865A1, “INDAZOLE COMPOUNDS AS KINASE INHIBITORS” (TYRA BIOSCIENCES, INC., priority 2020, published 2024)

Assays:
Assay in all cases: Kinase assay, binding constants (Kd), kinase-tagged T7 phage, qPCR
FGFR3 = FGFR3 (Homo sapiens (Human), UniProt P22607)
Protocol: (§1) Kinase-tagged T7 phage strains were prepared in an E. coli host derived from the BL21 strain. E. coli were grown to log-phase and infected with T7 phage and incubated with shaking at 32° C. until lysis. The lysates were centrifuged and filtered to remove cell debris. Streptavidin-coated magnetic beads were treated with biotinylated small molecule ligands for 30 minutes at room temperature to generate affinity resins for kinase assays. The liganded beads were blocked with excess biotin and washed with blocking buffer SeaBlock (Pierce), […], 1 mM DTT to remove unbound ligand and to reduce non-specific binding.
(§2) Test compounds were prepared as 111λ stocks in 10000 DMS0. Kds were determined using an 11-point 3-fold compound dilution series with three DMSO control points. […] The compounds were then diluted directly into the assays such that the final concentration of DMSO was 0.9%. All reactions performed in polypropylene 384-well plate. Each was a final volume of 0.02 ml. […] The beads were then re-suspended in elution buffer (1×PBS, 0.05% Tween […] non-biotinylated affinity ligand) and incubated at room temperature with shaking for 30 minutes. The kinase concentration in the eluates was measured by qPCR.
(§3) Binding constants were calculated with a standard dose-response curve using the Hill equation: […]
(§4) The Hill Slope was set to −1. Curves were fitted using a non-linear least square fit with the Levenberg-Marquardt algorithm.

FGFR3 (V555M) = FGFR3 (V555M) (Homo sapiens (Human), UniProt P22607, V555M); conditions: V555M mutant
Protocol: as §1, §2, §3, §4

FGFR2 = FGFR2 (Homo sapiens (Human), UniProt P21802)
Protocol: as §1, §2, §3, §4

FGFR1 = FGFR1 (Homo sapiens (Human), UniProt P11362)
Protocol: as §1, §2, §3, §4

FGFR4 = FGFR4 (Homo sapiens (Human), UniProt P22455)
Protocol: as §1, §2, §3, §4

Sequence of FGFR2 (P21802 22-821): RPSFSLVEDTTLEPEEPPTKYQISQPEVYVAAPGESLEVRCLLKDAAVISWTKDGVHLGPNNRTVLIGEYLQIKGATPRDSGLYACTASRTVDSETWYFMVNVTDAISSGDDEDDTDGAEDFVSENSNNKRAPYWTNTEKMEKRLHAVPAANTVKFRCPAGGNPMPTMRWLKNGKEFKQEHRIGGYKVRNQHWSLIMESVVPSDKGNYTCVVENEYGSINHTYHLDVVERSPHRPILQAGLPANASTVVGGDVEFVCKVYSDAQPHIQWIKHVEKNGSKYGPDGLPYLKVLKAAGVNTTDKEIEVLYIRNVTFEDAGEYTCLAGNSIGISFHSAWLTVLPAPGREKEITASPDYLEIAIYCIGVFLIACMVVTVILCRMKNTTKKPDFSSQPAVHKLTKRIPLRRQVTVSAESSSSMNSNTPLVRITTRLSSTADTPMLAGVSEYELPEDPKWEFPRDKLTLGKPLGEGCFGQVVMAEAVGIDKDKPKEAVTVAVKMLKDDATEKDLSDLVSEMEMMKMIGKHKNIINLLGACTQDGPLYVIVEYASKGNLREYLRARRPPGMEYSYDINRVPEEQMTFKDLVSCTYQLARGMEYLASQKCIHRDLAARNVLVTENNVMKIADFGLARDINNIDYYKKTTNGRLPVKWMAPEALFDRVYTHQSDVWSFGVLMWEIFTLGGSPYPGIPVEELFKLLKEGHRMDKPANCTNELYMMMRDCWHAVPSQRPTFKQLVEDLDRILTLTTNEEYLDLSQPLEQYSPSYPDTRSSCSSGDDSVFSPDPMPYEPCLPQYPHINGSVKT
Sequence of FGFR4 (P22455 22-802): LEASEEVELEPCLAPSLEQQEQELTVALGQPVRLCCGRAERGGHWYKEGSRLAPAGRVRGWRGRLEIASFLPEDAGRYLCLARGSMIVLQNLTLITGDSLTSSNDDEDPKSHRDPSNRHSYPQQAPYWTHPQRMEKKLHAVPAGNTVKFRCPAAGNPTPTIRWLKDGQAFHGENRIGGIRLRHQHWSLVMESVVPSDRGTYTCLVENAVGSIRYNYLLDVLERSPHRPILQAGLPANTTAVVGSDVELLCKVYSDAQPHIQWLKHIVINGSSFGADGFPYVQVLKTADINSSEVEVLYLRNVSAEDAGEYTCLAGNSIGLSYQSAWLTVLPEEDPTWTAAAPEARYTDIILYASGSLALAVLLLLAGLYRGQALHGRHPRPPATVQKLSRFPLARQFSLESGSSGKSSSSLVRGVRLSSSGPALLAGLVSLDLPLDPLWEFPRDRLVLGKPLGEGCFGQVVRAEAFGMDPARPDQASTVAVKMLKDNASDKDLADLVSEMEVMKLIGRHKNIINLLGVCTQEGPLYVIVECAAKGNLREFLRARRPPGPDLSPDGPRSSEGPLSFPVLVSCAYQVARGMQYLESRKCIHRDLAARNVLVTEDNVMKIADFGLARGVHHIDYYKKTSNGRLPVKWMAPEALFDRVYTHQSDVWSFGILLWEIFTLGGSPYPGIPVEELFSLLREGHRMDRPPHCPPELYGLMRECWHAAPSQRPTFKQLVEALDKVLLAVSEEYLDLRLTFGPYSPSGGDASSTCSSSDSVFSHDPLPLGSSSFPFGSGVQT
Sequence of FGFR3 (P22607 23-806): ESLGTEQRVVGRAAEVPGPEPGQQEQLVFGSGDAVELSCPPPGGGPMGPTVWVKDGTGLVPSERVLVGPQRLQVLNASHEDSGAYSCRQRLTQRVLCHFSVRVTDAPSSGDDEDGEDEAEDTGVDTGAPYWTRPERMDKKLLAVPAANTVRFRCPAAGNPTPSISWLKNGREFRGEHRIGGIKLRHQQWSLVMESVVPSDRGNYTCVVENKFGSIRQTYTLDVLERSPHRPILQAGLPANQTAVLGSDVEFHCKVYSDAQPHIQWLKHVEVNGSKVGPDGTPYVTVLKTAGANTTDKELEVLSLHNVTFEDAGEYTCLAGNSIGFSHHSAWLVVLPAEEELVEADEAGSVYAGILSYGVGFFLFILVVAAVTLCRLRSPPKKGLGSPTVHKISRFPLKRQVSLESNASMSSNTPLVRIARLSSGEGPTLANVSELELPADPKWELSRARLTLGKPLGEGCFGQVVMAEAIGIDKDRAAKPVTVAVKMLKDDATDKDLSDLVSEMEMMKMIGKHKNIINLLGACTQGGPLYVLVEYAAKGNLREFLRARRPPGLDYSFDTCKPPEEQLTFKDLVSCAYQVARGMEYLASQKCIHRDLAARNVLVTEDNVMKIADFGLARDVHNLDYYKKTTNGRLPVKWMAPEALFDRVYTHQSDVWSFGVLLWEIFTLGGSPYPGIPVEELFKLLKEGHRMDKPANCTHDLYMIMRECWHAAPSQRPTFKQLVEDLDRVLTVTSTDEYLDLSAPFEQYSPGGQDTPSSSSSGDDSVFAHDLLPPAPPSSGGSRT
Sequence of FGFR3 (V555M) (P22607 23-806 V555M): as the sequence (P22607 23-806) above, with V533M counted along it
Sequence of FGFR1 (P11362 22-822): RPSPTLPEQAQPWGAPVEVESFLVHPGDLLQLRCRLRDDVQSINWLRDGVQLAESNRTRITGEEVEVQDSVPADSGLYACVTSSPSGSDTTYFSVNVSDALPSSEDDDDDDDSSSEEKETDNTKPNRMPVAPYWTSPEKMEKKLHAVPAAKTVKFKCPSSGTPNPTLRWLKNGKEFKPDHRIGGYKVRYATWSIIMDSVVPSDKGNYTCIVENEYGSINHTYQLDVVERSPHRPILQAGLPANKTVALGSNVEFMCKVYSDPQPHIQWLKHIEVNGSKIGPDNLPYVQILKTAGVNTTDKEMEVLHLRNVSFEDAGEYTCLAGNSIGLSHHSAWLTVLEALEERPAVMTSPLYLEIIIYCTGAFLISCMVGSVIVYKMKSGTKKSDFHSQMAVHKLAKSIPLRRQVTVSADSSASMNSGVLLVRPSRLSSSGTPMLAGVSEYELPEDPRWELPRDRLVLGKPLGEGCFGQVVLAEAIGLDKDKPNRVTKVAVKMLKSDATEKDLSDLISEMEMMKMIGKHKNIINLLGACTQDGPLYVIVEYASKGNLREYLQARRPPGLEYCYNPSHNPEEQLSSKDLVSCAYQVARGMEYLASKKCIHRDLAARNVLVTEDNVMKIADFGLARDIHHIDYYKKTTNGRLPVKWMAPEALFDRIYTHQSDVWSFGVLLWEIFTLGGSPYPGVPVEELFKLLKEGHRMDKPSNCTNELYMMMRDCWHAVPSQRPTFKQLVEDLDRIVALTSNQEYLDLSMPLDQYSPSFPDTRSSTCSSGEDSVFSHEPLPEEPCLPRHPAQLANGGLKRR

| Kd (FGFR3) [nM] | Kd (FGFR3 (V555M)) [nM] | Kd (FGFR2) [nM] | Kd (FGFR1) [nM] | Kd (FGFR4) [nM] | Compound |
| --- | --- | --- | --- | --- | --- |
| 1 to 20 | 1 to 20 | 1 to 20 | 1 to 20 | 1 to 20 | Cc1cnnc(C)c1[C@@H](C)Oc1ccc2[nH]nc(-c3ccc(N4CCN5C[C@H](O)C[C@H]5C4)nc3)c2c1 [Example 176, (7R,8aS)-2-[5-[5-[(1R)-1-(3,5-dimethylpyridazin-4-yl)ethoxy]-1H-indazol-3-yl]-2-pyridyl]-3,4,6,7,8,8a-hexahydro-1H-pyrrolo[1,2-a]pyrazin-7-ol] |
| 1 to 20 | 1 to 20 | 20 to 100 | 1 to 20 | 1 to 20 | Cc1ncc(Cl)c([C@@H](C)Oc2ccc3[nH]nc(-c4ccc(N5CC6(CNC6)C5)nc4)c3c2)c1Cl [Example 177, 3-[6-(2,6-diazaspiro[3.3]heptan-2-yl)-3-pyridyl]-5-[(1R)-1-(3,5-dichloro-2-methyl-4-pyridyl)ethoxy]-1H-indazole] |
| 1 to 20 | 1 to 20 | 1 to 20 | 1 to 20 | 1 to 20 | C[C@@H](Oc1ccc2[nH]nc(-c3ccc(N4CCN5C[C@H](O)C[C@H]5C4)nc3)c2c1)c1c(Cl)cncc1Cl [Example 178, (7R,8aS)-2-[5-[5-[(1R)-1-(3,5-dichloro-4-pyridyl)ethoxy]-1H-indazol-3-yl]-2-pyridyl]-3,4,6,7,8,8a-hexahydro-1H-pyrrolo[1,2-a]pyrazin-7-ol] |
| 1 to 20 | 1 to 20 | 20 to 100 | 20 to 100 | 1 to 20 | Cc1ncc(Cl)c([C@@H](C)Oc2ccc3[nH]nc(-c4cnc(N5CC6(CNC6)C5)nc4)c3c2)c1Cl [Example 179, 3-[2-(2,6-diazaspiro[3.3]heptan-2-yl)pyrimidin-5-yl]-5-[(1R)-1-(3,5-dichloro-2-methyl-4-pyridyl)ethoxy]-1H-indazole] |
| 1 to 20 | 1 to 20 | 20 to 100 | 20 to 100 | 20 to 100 | CCS(=O)(=O)N1CC2(CN(c3ccc(-c4n[nH]c5ccc(O[C@H](C)c6c(Cl)cnc(C)c6Cl)cc45)cn3)C2)C1 [Example 180, 5-[(1R)-1-(3,5-dichloro-2-methyl-4-pyridyl)ethoxy]-3-[6-(2-ethylsulfonyl-2,6-diazaspiro[3.3]heptan-6-yl)-3-pyridyl]-1H-indazole] |
| 1 to 20 | 1 to 20 | > 300 | 100 to 300 | 1 to 20 | CCS(=O)(=O)N1CC2(CN(c3ncc(-c4n[nH]c5ccc(O[C@H](C)c6c(Cl)cnc(C)c6Cl)cc45)cn3)C2)C1 [Example 181, 5-[(1R)-1-(3,5-dichloro-2-methyl-4-pyridyl)ethoxy]-3-[2-(2-ethylsulfonyl-2,6-diazaspiro[3.3]heptan-6-yl)pyrimidin-5-yl]-1H-indazole] |
| 1 to 20 | 1 to 20 | 1 to 20 | 20 to 100 | 1 to 20 | CCOC(=O)N1CCCC2(C1)CN(c1ccc(-c3n[nH]c4ccc(O[C@H](C)c5c(C)cnnc5C)cc34)cn1)C2 [Example 182, ethyl 2-[5-[5-[(1R)-1-(3,5-dimethylpyridazin-4-yl)ethoxy]-1H-indazol-3-yl]-2-pyridyl]-2,8-diazaspiro[3.5]nonane-8-carboxylate] |
| 1 to 20 | 1 to 20 | 1 to 20 | 1 to 20 | 1 to 20 | C[C@@H](Oc1ccc2[nH]nc(-c3ccc(N4CCN5CCC[C@H]5C4)nc3)c2c1)c1c(Cl)cncc1Cl [Example 183, 3-[6-[(8aS)-3,4,6,7,8,8a-hexahydro-1H-pyrrolo[1,2-a]pyrazin-2-yl]-3-pyridyl]-5-[(1R)-1-(3,5-dichloro-4-pyridyl)ethoxy]-1H-indazole] |
| 1 to 20 | 1 to 20 | 1 to 20 | 1 to 20 | 1 to 20 | C[C@@H](Oc1ccc2[nH]nc(-c3ccc(N4CCN5CCC[C@@H]5C4)nc3)c2c1)c1c(Cl)cncc1Cl [Example 184, 3-[6-[(8aR)-3,4,6,7,8,8a-hexahydro-1H-pyrrolo[1,2-a]pyrazin-2-yl]-3-pyridyl]-5-[(1R)-1-(3,5-dichloro-4-pyridyl)ethoxy]-1H-indazole] |
| 20 to 100 | 1 to 20 | 100 to 300 | > 300 | 1 to 20 | CCOC(=O)N1CC2(C1)CN(c1ncc(-c3n[nH]c4ccc(O[C@H](C)c5c(Cl)cnc(C)c5Cl)cc34)cn1)C2 [Example 185, ethyl 6-[5-[5-[(1R)-1-(3,5-dichloro-2-methyl-4-pyridyl)ethoxy]-1H-indazol-3-yl]pyrimidin-2-yl]-2,6-diazaspiro[3.3]heptane-2-carboxylate] |
| 1 to 20 | 1 to 20 | 20 to 100 | 100 to 300 | 20 to 100 | CCS(=O)(=O)N1CCCC2(CN(c3ccc(-c4n[nH]c5ccc(O[C@H](C)c6c(C)cnnc6C)cc45)cn3)C2)C1 [Example 186, 5-[(1R)-1-(3,5-dimethylpyridazin-4-yl)ethoxy]-3-[6-(8-ethylsulfonyl-2,8-diazaspiro[3.5]nonan-2-yl)-3-pyridyl]-1H-indazole] |
| 1 to 20 | 1 to 20 | 1 to 20 | 1 to 20 | 1 to 20 | COC(=O)N1CCCC2(C1)CN(c1ccc(-c3n[nH]c4ccc(O[C@H](C)c5c(C)cnnc5C)cc34)cn1)C2 [Example 187, methyl 2-[5-[5-[(1R)-1-(3,5-dimethylpyridazin-4-yl)ethoxy]-1H-indazol-3-yl]-2-pyridyl]-2,8-diazaspiro[3.5]nonane-8-carboxylate] |
| 1 to 20 | 1 to 20 | 1 to 20 | 20 to 100 | 1 to 20 | Cc1cnnc(C)c1[C@@H](C)Oc1ccc2[nH]nc(-c3ccc(N4CC5(CCCN(S(C)(=O)=O)C5)C4)nc3)c2c1 [Example 188, 5-[(1R)-1-(3,5-dimethylpyridazin-4-yl)ethoxy]-3-[6-(8-methylsulfonyl-2,8-diazaspiro[3.5]nonan-2-yl)-3-pyridyl]-1H-indazole] |
| 1 to 20 | 1 to 20 | 1 to 20 | 20 to 100 | 1 to 20 | Cc1cnnc(C)c1[C@@H](C)Oc1ccc2[nH]nc(-c3ccc(N4CC5(CCCN(C(=O)OC(C)C)C5)C4)nc3)c2c1 [Example 189, isopropyl 2-[5-[5-[(1R)-1-(3,5-dimethylpyridazin-4-yl)ethoxy]-1H-indazol-3-yl]-2-pyridyl]-2,8-diazaspiro[3.5]nonane-8-carboxylate] |
| 1 to 20 | 1 to 20 | 100 to 300 | 100 to 300 | 20 to 100 | CCOC(=O)N1CC2(C1)CN(c1ccc(-c3n[nH]c4ccc(O[C@H](C)c5c(Cl)cnc(C)c5Cl)cc34)cn1)C2 [Example 190, ethyl 6-[5-[5-[(1R)-1-(3,5-dichloro-2-methyl-4-pyridyl)ethoxy]-1H-indazol-3-yl]-2-pyridyl]-2,6-diazaspiro[3.3]heptane-2-carboxylate] |
| 1 to 20 | 1 to 20 | 1 to 20 | 1 to 20 | 1 to 20 | COc1cc2[nH]nc(-c3ccc(N4CC5(C4)CN(S(C)(=O)=O)C5)nc3)c2cc1O[C@H](C)c1c(Cl)cncc1Cl [Example 191, 5-[(1R)-1-(3,5-dichloro-4-pyridyl)ethoxy]-6-methoxy-3-[6-(2-methylsulfonyl-2,6-diazaspiro[3.3]heptan-6-yl)-3-pyridyl]-1H-indazole] |
| 1 to 20 | 1 to 20 | 20 to 100 | 100 to 300 | 100 to 300 | COc1cc2[nH]nc(-c3ccc(N4CC5(C4)CN(S(C)(=O)=O)C5)nc3)c2cc1O[C@@H](C)c1c(C)cnnc1C [Example 192, 5-[(1S)-1-(3,5-dimethylpyridazin-4-yl)ethoxy]-6-methoxy-3-[6-(2-methylsulfonyl-2,6-diazaspiro[3.3]heptan-6-yl)-3-pyridyl]-1H-indazole] |
| > 300 | 100 to 300 | > 300 | > 300 | > 300 | CCOC(=O)N1CC2(C1)CN(c1ccc(-c3n[nH]c4ccc(O[C@@H](C)c5c(Cl)cnc(F)c5Cl)cc34)cn1)C2 [Example 193, Ethyl 6-[5-[5-[(1S)-1-(3,5-dichloro-2-fluoro-4-pyridyl)ethoxy]-1H-indazol-3-yl]-2-pyridyl]-2,6-diazaspiro[3.3]heptane-2-carboxylate] |
| 1 to 20 | 1 to 20 | 1 to 20 | 1 to 20 | 1 to 20 | COc1cc2[nH]nc(-c3ccc(N4CC5(C4)CN(S(C)(=O)=O)C5)nc3)c2cc1O[C@H](C)c1c(C)cnnc1C [Example 194, 5-[(1R)-1-(3,5-dimethylpyridazin-4-yl)ethoxy]-6-methoxy-3-[6-(2-methylsulfonyl-2,6-diazaspiro[3.3]heptan-6-yl)-3-pyridyl]-1H-indazole] |
| 1 to 20 | 1 to 20 | 20 to 100 | 100 to 300 | 20 to 100 | COC(=O)N1CC2(C1)CN(c1ccc(-c3n[nH]c4ccc(O[C@H](C)c5c(Cl)cnc(F)c5Cl)cc34)cn1)C2 [Example 195, methyl 6-[5-[5-[(1R)-1-(3,5-dichloro-2-fluoro-4-pyridyl)ethoxy]-1H-indazol-3-yl]-2-pyridyl]-2,6-diazaspiro[3.3]heptane-2-carboxylate] |
